In brackets after ≈: the same amount, converted by molar mass.
system: Candida albicans; assay: Antifungal activity against Candida albicans MTCC 183 after 48 hr by agar streak dilution method; type: functional; details: MTCC 183, 48 h

SMILES	MIC
CNc1nc(Nc2ccc(C#N)cc2)nc(Oc2cc(=O)n(C)c3ccccc23)n1	> 50 µg/mL
CN(C)c1nc(Nc2ccc(C#N)cc2)nc(Oc2cc(=O)n(C)c3ccccc23)n1	> 50 µg/mL
CCNc1nc(Nc2ccc(C#N)cc2)nc(Oc2cc(=O)n(C)c3ccccc23)n1	> 50 µg/mL
CCN(CC)c1nc(Nc2ccc(C#N)cc2)nc(Oc2cc(=O)n(C)c3ccccc23)n1	50 µg/mL (≈ 113 µM)

system: Aspergillus niger; assay: Antifungal activity against Aspergillus niger MTCC 282 after 48 hr by agar streak dilution method; type: functional; details: MTCC 282, 48 h

SMILES	MIC
CNc1nc(Nc2ccc(C#N)cc2)nc(Oc2cc(=O)n(C)c3ccccc23)n1	> 50 µg/mL
CN(C)c1nc(Nc2ccc(C#N)cc2)nc(Oc2cc(=O)n(C)c3ccccc23)n1	> 50 µg/mL
CCNc1nc(Nc2ccc(C#N)cc2)nc(Oc2cc(=O)n(C)c3ccccc23)n1	> 50 µg/mL
CCN(CC)c1nc(Nc2ccc(C#N)cc2)nc(Oc2cc(=O)n(C)c3ccccc23)n1	50 µg/mL (≈ 113 µM)

system: Candida albicans; assay: Antifungal activity against Candida albicans MTCC 183 after 24 hr by paper disk diffusion method; type: functional; details: not given

SMILES	inhibition zone (IZ)
CNc1nc(Nc2ccc(C#N)cc2)nc(Oc2cc(=O)n(C)c3ccccc23)n1	<5 mm
CN(C)c1nc(Nc2ccc(C#N)cc2)nc(Oc2cc(=O)n(C)c3ccccc23)n1	<5 mm
CCNc1nc(Nc2ccc(C#N)cc2)nc(Oc2cc(=O)n(C)c3ccccc23)n1	<5 mm
CCN(CC)c1nc(Nc2ccc(C#N)cc2)nc(Oc2cc(=O)n(C)c3ccccc23)n1	9 mm

system: Aspergillus niger; assay: Antifungal activity against Aspergillus niger MTCC 282 after 24 hr by paper disk diffusion method; type: functional; details: not given

SMILES	inhibition zone (IZ)
CNc1nc(Nc2ccc(C#N)cc2)nc(Oc2cc(=O)n(C)c3ccccc23)n1	<5 mm
CN(C)c1nc(Nc2ccc(C#N)cc2)nc(Oc2cc(=O)n(C)c3ccccc23)n1	<5 mm
CCNc1nc(Nc2ccc(C#N)cc2)nc(Oc2cc(=O)n(C)c3ccccc23)n1	<5 mm
CCN(CC)c1nc(Nc2ccc(C#N)cc2)nc(Oc2cc(=O)n(C)c3ccccc23)n1	9 mm

system: Shigella flexneri; assay: Antibacterial activity against Shigella flexneri MTCC 1457 after 24 hr by agar streak dilution method; type: functional; details: MTCC 1457, 24 h

SMILES	MIC
CNc1nc(Nc2ccc(C#N)cc2)nc(Oc2cc(=O)n(C)c3ccccc23)n1	50 µg/mL (≈ 125 µM)
CN(C)c1nc(Nc2ccc(C#N)cc2)nc(Oc2cc(=O)n(C)c3ccccc23)n1	50 µg/mL (≈ 121 µM)
CCNc1nc(Nc2ccc(C#N)cc2)nc(Oc2cc(=O)n(C)c3ccccc23)n1	50 µg/mL (≈ 121 µM)
CCN(CC)c1nc(Nc2ccc(C#N)cc2)nc(Oc2cc(=O)n(C)c3ccccc23)n1	50 µg/mL (≈ 113 µM)

system: Proteus vulgaris; assay: Antibacterial activity against Proteus vulgaris MTCC 1771 after 24 hr by agar streak dilution method; type: functional; details: MTCC 1771, 24 h

SMILES	MIC
CNc1nc(Nc2ccc(C#N)cc2)nc(Oc2cc(=O)n(C)c3ccccc23)n1	50 µg/mL (≈ 125 µM)
CN(C)c1nc(Nc2ccc(C#N)cc2)nc(Oc2cc(=O)n(C)c3ccccc23)n1	50 µg/mL (≈ 121 µM)
CCNc1nc(Nc2ccc(C#N)cc2)nc(Oc2cc(=O)n(C)c3ccccc23)n1	50 µg/mL (≈ 121 µM)
CCN(CC)c1nc(Nc2ccc(C#N)cc2)nc(Oc2cc(=O)n(C)c3ccccc23)n1	50 µg/mL (≈ 113 µM)

system: Salmonella typhi; assay: Antibacterial activity against Salmonella enterica subsp. enterica serovar Typhi MTCC 733 after 24 hr by agar streak dilution method; type: functional; details: MTCC 733, 24 h

SMILES	MIC
CNc1nc(Nc2ccc(C#N)cc2)nc(Oc2cc(=O)n(C)c3ccccc23)n1	50 µg/mL (≈ 125 µM)
CN(C)c1nc(Nc2ccc(C#N)cc2)nc(Oc2cc(=O)n(C)c3ccccc23)n1	50 µg/mL (≈ 121 µM)
CCNc1nc(Nc2ccc(C#N)cc2)nc(Oc2cc(=O)n(C)c3ccccc23)n1	50 µg/mL (≈ 121 µM)
CCN(CC)c1nc(Nc2ccc(C#N)cc2)nc(Oc2cc(=O)n(C)c3ccccc23)n1	50 µg/mL (≈ 113 µM)

system: Klebsiella pneumoniae; assay: Antibacterial activity against Klebsiella pneumoniae MTCC 109 after 24 hr by agar streak dilution method; type: functional; details: MTCC 109, 24 h

SMILES	MIC
CNc1nc(Nc2ccc(C#N)cc2)nc(Oc2cc(=O)n(C)c3ccccc23)n1	50 µg/mL (≈ 125 µM)
CN(C)c1nc(Nc2ccc(C#N)cc2)nc(Oc2cc(=O)n(C)c3ccccc23)n1	50 µg/mL (≈ 121 µM)
CCNc1nc(Nc2ccc(C#N)cc2)nc(Oc2cc(=O)n(C)c3ccccc23)n1	50 µg/mL (≈ 121 µM)
CCN(CC)c1nc(Nc2ccc(C#N)cc2)nc(Oc2cc(=O)n(C)c3ccccc23)n1	50 µg/mL (≈ 113 µM)

system: Pseudomonas aeruginosa; assay: Antibacterial activity against Pseudomonas aeruginosa MTCC 741 after 24 hr by agar streak dilution method; type: functional; details: MTCC 741, 24 h

SMILES	MIC
CNc1nc(Nc2ccc(C#N)cc2)nc(Oc2cc(=O)n(C)c3ccccc23)n1	6.25 µg/mL (≈ 15.6 µM)
CN(C)c1nc(Nc2ccc(C#N)cc2)nc(Oc2cc(=O)n(C)c3ccccc23)n1	50 µg/mL (≈ 121 µM)
CCNc1nc(Nc2ccc(C#N)cc2)nc(Oc2cc(=O)n(C)c3ccccc23)n1	12.5 µg/mL (≈ 30.2 µM)
CCN(CC)c1nc(Nc2ccc(C#N)cc2)nc(Oc2cc(=O)n(C)c3ccccc23)n1	50 µg/mL (≈ 113 µM)

system: Escherichia coli; assay: Antibacterial activity against Escherichia coli MTCC 739 after 24 hr by agar streak dilution method; type: functional; details: MTCC 739, 24 h

SMILES	MIC
CNc1nc(Nc2ccc(C#N)cc2)nc(Oc2cc(=O)n(C)c3ccccc23)n1	50 µg/mL (≈ 125 µM)
CN(C)c1nc(Nc2ccc(C#N)cc2)nc(Oc2cc(=O)n(C)c3ccccc23)n1	50 µg/mL (≈ 121 µM)
CCNc1nc(Nc2ccc(C#N)cc2)nc(Oc2cc(=O)n(C)c3ccccc23)n1	50 µg/mL (≈ 121 µM)
CCN(CC)c1nc(Nc2ccc(C#N)cc2)nc(Oc2cc(=O)n(C)c3ccccc23)n1	50 µg/mL (≈ 113 µM)

system: Bacillus cereus; assay: Antibacterial activity against Bacillus cereus MTCC 619 after 24 hr by agar streak dilution method; type: functional; details: MTCC 619, 24 h

SMILES	MIC
CNc1nc(Nc2ccc(C#N)cc2)nc(Oc2cc(=O)n(C)c3ccccc23)n1	50 µg/mL (≈ 125 µM)
CN(C)c1nc(Nc2ccc(C#N)cc2)nc(Oc2cc(=O)n(C)c3ccccc23)n1	12.5 µg/mL (≈ 30.2 µM)
CCNc1nc(Nc2ccc(C#N)cc2)nc(Oc2cc(=O)n(C)c3ccccc23)n1	50 µg/mL (≈ 121 µM)
CCN(CC)c1nc(Nc2ccc(C#N)cc2)nc(Oc2cc(=O)n(C)c3ccccc23)n1	12.5 µg/mL (≈ 28.3 µM)

system: Staphylococcus aureus; assay: Antibacterial activity against Staphylococcus aureus MTCC 96 after 24 hr by agar streak dilution method; type: functional; details: MTCC 96, 24 h

SMILES	MIC
CNc1nc(Nc2ccc(C#N)cc2)nc(Oc2cc(=O)n(C)c3ccccc23)n1	50 µg/mL (≈ 125 µM)
CN(C)c1nc(Nc2ccc(C#N)cc2)nc(Oc2cc(=O)n(C)c3ccccc23)n1	50 µg/mL (≈ 121 µM)
CCNc1nc(Nc2ccc(C#N)cc2)nc(Oc2cc(=O)n(C)c3ccccc23)n1	50 µg/mL (≈ 121 µM)
CCN(CC)c1nc(Nc2ccc(C#N)cc2)nc(Oc2cc(=O)n(C)c3ccccc23)n1	25 µg/mL (≈ 56.6 µM)

system: Shigella flexneri; assay: Antibacterial activity against Shigella flexneri MTCC 1457 after 24 hr by paper disk diffusion method; type: functional; details: not given

SMILES	inhibition zone (IZ)
CNc1nc(Nc2ccc(C#N)cc2)nc(Oc2cc(=O)n(C)c3ccccc23)n1	8 mm
CN(C)c1nc(Nc2ccc(C#N)cc2)nc(Oc2cc(=O)n(C)c3ccccc23)n1	<5 mm
CCNc1nc(Nc2ccc(C#N)cc2)nc(Oc2cc(=O)n(C)c3ccccc23)n1	7 mm
CCN(CC)c1nc(Nc2ccc(C#N)cc2)nc(Oc2cc(=O)n(C)c3ccccc23)n1	10 mm

system: Proteus vulgaris; assay: Antibacterial activity against Proteus vulgaris MTCC 1771 after 24 hr by paper disk diffusion method; type: functional; details: not given

SMILES	inhibition zone (IZ)
CNc1nc(Nc2ccc(C#N)cc2)nc(Oc2cc(=O)n(C)c3ccccc23)n1	8 mm
CN(C)c1nc(Nc2ccc(C#N)cc2)nc(Oc2cc(=O)n(C)c3ccccc23)n1	9 mm
CCNc1nc(Nc2ccc(C#N)cc2)nc(Oc2cc(=O)n(C)c3ccccc23)n1	<5 mm
CCN(CC)c1nc(Nc2ccc(C#N)cc2)nc(Oc2cc(=O)n(C)c3ccccc23)n1	<5 mm

system: Salmonella typhi; assay: Antibacterial activity against Salmonella enterica subsp. enterica serovar Typhi MTCC 733 after 24 hr by paper disk diffusion method; type: functional; details: not given

SMILES	inhibition zone (IZ)
CNc1nc(Nc2ccc(C#N)cc2)nc(Oc2cc(=O)n(C)c3ccccc23)n1	<5 mm
CN(C)c1nc(Nc2ccc(C#N)cc2)nc(Oc2cc(=O)n(C)c3ccccc23)n1	7 mm
CCNc1nc(Nc2ccc(C#N)cc2)nc(Oc2cc(=O)n(C)c3ccccc23)n1	9 mm
CCN(CC)c1nc(Nc2ccc(C#N)cc2)nc(Oc2cc(=O)n(C)c3ccccc23)n1	10 mm

system: Pseudomonas aeruginosa; assay: Antibacterial activity against Pseudomonas aeruginosa MTCC 741 after 24 hr by paper disk diffusion method; type: functional; details: not given

SMILES	inhibition zone (IZ)
CNc1nc(Nc2ccc(C#N)cc2)nc(Oc2cc(=O)n(C)c3ccccc23)n1	14 mm
CN(C)c1nc(Nc2ccc(C#N)cc2)nc(Oc2cc(=O)n(C)c3ccccc23)n1	8 mm
CCNc1nc(Nc2ccc(C#N)cc2)nc(Oc2cc(=O)n(C)c3ccccc23)n1	12 mm
CCN(CC)c1nc(Nc2ccc(C#N)cc2)nc(Oc2cc(=O)n(C)c3ccccc23)n1	10 mm

system: Escherichia coli; assay: Antibacterial activity against Escherichia coli MTCC 739 after 24 hr by paper disk diffusion method; type: functional; details: not given

SMILES	inhibition zone (IZ)
CNc1nc(Nc2ccc(C#N)cc2)nc(Oc2cc(=O)n(C)c3ccccc23)n1	<5 mm
CN(C)c1nc(Nc2ccc(C#N)cc2)nc(Oc2cc(=O)n(C)c3ccccc23)n1	10 mm
CCNc1nc(Nc2ccc(C#N)cc2)nc(Oc2cc(=O)n(C)c3ccccc23)n1	8 mm
CCN(CC)c1nc(Nc2ccc(C#N)cc2)nc(Oc2cc(=O)n(C)c3ccccc23)n1	11 mm

system: Bacillus cereus; assay: Antibacterial activity against Bacillus cereus MTCC 619 after 24 hr by paper disk diffusion method; type: functional; details: not given

SMILES	inhibition zone (IZ)
CNc1nc(Nc2ccc(C#N)cc2)nc(Oc2cc(=O)n(C)c3ccccc23)n1	7 mm
CN(C)c1nc(Nc2ccc(C#N)cc2)nc(Oc2cc(=O)n(C)c3ccccc23)n1	14 mm
CCNc1nc(Nc2ccc(C#N)cc2)nc(Oc2cc(=O)n(C)c3ccccc23)n1	<5 mm
CCN(CC)c1nc(Nc2ccc(C#N)cc2)nc(Oc2cc(=O)n(C)c3ccccc23)n1	16 mm

system: Staphylococcus aureus; assay: Antibacterial activity against Staphylococcus aureus MTCC 96 after 24 hr by paper disk diffusion method; type: functional; details: not given

SMILES	inhibition zone (IZ)
CNc1nc(Nc2ccc(C#N)cc2)nc(Oc2cc(=O)n(C)c3ccccc23)n1	11 mm
CN(C)c1nc(Nc2ccc(C#N)cc2)nc(Oc2cc(=O)n(C)c3ccccc23)n1	12 mm
CCNc1nc(Nc2ccc(C#N)cc2)nc(Oc2cc(=O)n(C)c3ccccc23)n1	10 mm
CCN(CC)c1nc(Nc2ccc(C#N)cc2)nc(Oc2cc(=O)n(C)c3ccccc23)n1	13 mm

Reference: ChEMBL document CHEMBL3046451, “Design, synthesis, characterization, and in vitro antimicrobial action of novel trisubstituted s-triazines” (2012)
